# From patent publication US20060084172A1, “Method for producing stem cells with increased developmental potential” (Julius-Maximilians-Unversitat Wurzburg, priority 2001, published 2006)
# What was measured:
# [1] = test system: Oct4 gene; assay: Oct4-gene specific RT-PCR after incubation of neural stem cells; format: cell-based, mouse; conditions: 2-day incubation of neural stem cells (NSC #417, NSC #125); 150-250 nanomolar Trichostatin A and/or 300-600 nanomolar 5-aza-2′ deoxycytidine; HPRT normalization
# Protocol: For investigating whether the incubation of adult neural stem cells of Example 1 with deacetylase inhibitors (e.g. Trichostatin A) and/or nucleotide analogs (e.g. 5-aza-2′ deoxycytidine), which prevent a methylation, influences the gene expression, the stem cells were incubated with one of these substances or a mixture of these substances. This was performed in Neurobasal medium, B27 supplement, 20-40 ng EGF, 20-40 ng FGF-2, 150-250 nanomolar Trichostatin A and/or 300-600 nanomolar 5-aza-2′ deoxycytidine for 2 or 4 days. Subsequently to the incubation, RNA was isolated from the cells, and cDNA was produced by means of the enzyme reverse transcriptase. By using gene-specific primers, the gene expression of the Oct4 gene was investigated. The Oct4 gene serves as an example of a development-specific regulator gene. It is only active in very early development stages (zygote, morula, blastula). Later, the expression is restricted to germ cells. The Oct4 gene is not transcribed in the adult organism outside the germ cells, thus also not in somatic stem cells. The Oct4 gene is thus only active in cells, which have a development potential larger than that of the somatic stem cells [see Pesce M, Anastassiedies K, Scholer H R (1999) Oct4: lessons of totipotency from embryonic stem cells. Cells Tissues Organs 165:144-152]. […] Under these conditions, no Oct4 expression was detected anymore. […]
# [2] = test system: mouse blastocysts; assay: Injection of treated neural stem cells into blastocysts, Y chromosome-specific PCR of tissues of chimeric animals; format: in vivo; conditions: treated neural stem cells injected into blastocysts, animals examined at 4 weeks, FIG. 4b versus untreated FIG. 4a
# Text: In order to determine the plasticity of the employed somatic stem cell types, neural and hematopoietic stem cells of the Examples 1 and 2 were isolated and injected into mouse blastocysts (see FIG. 2). From the blastocyst develops the complete embryo and later the adult animal. By this method, the injected stem cells are subjected to all inductive processes, which take place during the development of the embryo. If the used hematopoietic or neural stem cells should have the capability to differentiate to all or many tissues or cell types of the adult animal, then descendants of the injected stem cells should be detectable for the developed animal in several different or all tissues and organs. If this detection is positive and the donor cells carry foreign, tissue-specific markers and perform foreign, tissue-specific functions, then the treatment of the somatic stem cells has led to an increased plasticity.
# In order to investigate the development potential of somatic stem cells treated according to Example 4, neural stem cells of Example 4 (from male animals) were washed and injected (20-40 pieces) into blastocysts, which were isolated from superovulated females after object pairing. […] Male donor cells, which originate from the injected neural stem cells (NSC), were detected by a Y chromosome-specific PCR reaction (YMT primer). […]
smiles,measurement,setting,value
CC(/C=C/C(=O)NO)=C\[C@@H](C)C(=O)c1ccc(N(C)C)cc1 [Trichostatin A],Oct4 gene expression (RT-PCR),[1],reactivates the Oct4 gene
same,distribution spectrum of donor cells in tissues,[2],substantially wider distribution spectrum
